Results from US8987193B2, “Nisin derivatives and the use thereof” (University College Cork—National University of Ireland, Cork, priority 2008, dated 2015).
“Also recorded” adds a separate entry of the source. Ends that are not written are not given here.

Tests used:
[1] = tested on: L. monocytogenes CBC1; experiment: Deferred antagonism assay; type: cell-based, Listeria monocytogenes; design: key: + = Enhanced bioactivity relative to control; − = Bioactivity equal to or less than control; NA = no activity evident; conditions: L. mono CBC1; XX and XXX hinge mutant producers
Method: (§1) Deferred antagonism assays were performed by replicating strains on GM17 or GM17 x-gal agar plates and allowing them to grow overnight before overlaying with either GM17/BHI/TS/MH agar (0.75% w/v agar) seeded with the appropriate indicator strain. Zone size was calculated as the diameter of the zone of clearing minus the diameter of bacterial growth (5 mm) For higher throughput screening of N20PXX, XM21VX, XXK22T and XXX banks deferred antagonism assays were performed by replicating strains using a 96 pin replicator (Boekel) or spotting 5 μl of a fresh overnight culture on GM17 agar plates and allowing them to grow overnight. […] Additional sets of indicators were employed to further assess/reassess the bioactivity of a number of strains. […] For well-diffusion assays molten agar was cooled to 48° C. and seeded with the appropriate indicator strain. The inoculated medium was rapidly transferred into sterile Petri plates in 50 ml volumes, allowed to solidify and dried. Wells (4.6 mm in diameter) were then made in the seeded plates. Purified nisin and mutant nisins were resuspended in 0.005% acetic acid, serially diluted, 50 μl volumes were dispensed into the aforementioned wells and the plates incubated at 37° C. overnight. Bioactivity was expressed as arbitrary units/ml (AU/ml) and calculated as the reciprocal of the highest dilution that gave a definite zone multiplied by the conversion factor (i.e. 20 when 50 μl was used) (Ryan et al., 1996).
(§2) As a consequence of the enhanced activities of K22T and K22S, a more in-depth investigation of this region was carried out. Saturation mutagenesis was undertaken to create a bank of nisin A hinge derivatives containing the vast majority of possible amino acid substitutions for each position. Although pPTPL was used successfully for random mutagenesis, its relatively large size of approx 10.5 kb was considered unsuitable for the complete plasmid PCR amplification approach utilized for saturation mutagenesis. A smaller (approx 6 kb) E. coli-L. lactis shuttle vector pCI372 was considered to be potentially more useful. Its suitability with respect to the in trans expression of nisA was confirmed by the ability of pDFO5 to restore the nisin positive phenotype. Saturation mutagenesis was performed on each codon using pDF05 and oligonucleotides (Table 5) that replace the specific codon with a NNK triplet, potentially encoding all 20 standard amino acids. Following complete plasmid amplification and introduction into the intermediate Top10 host, sequence analysis of a pooled bank of pDF05 derivatives confirmed randomization. Introduction of these variants into L. lactis NZ9800 allowed the expression of mutant nisin A peptides for further analysis. […] 46 residue conversions were isolated. All strains, regardless of bioactivity, were assessed with a view to comprehensively assessing the consequences of each individual hinge alteration.

[2] = tested on: L. monocytogenes CBC2; experiment: Deferred antagonism assay; type: cell-based, Listeria monocytogenes; design: key: + = Enhanced bioactivity relative to control; − = Bioactivity equal to or less than control; NA = no activity evident; conditions: L. mono CBC2; XX and XXX hinge mutant producers
Method: as §1, §2

[3] = tested on: L. monocytogenes CBC3; experiment: Deferred antagonism assay; type: cell-based, Listeria monocytogenes; design: key: + = Enhanced bioactivity relative to control; − = Bioactivity equal to or less than control; NA = no activity evident; conditions: L. mono CBC3; XX and XXX hinge mutant producers
Method: as §1, §2

[4] = tested on: L. lactis CBC7; experiment: Deferred antagonism assay; type: cell-based; design: key: + = Enhanced bioactivity relative to control; − = Bioactivity equal to or less than control; NA = no activity evident; conditions: XX and XXX hinge mutant producers
Method: as §1, §2

[5] = tested on: L. lactis CBC8; experiment: Deferred antagonism assay; type: cell-based; design: key: + = Enhanced bioactivity relative to control; − = Bioactivity equal to or less than control; NA = no activity evident; conditions: XX and XXX hinge mutant producers
Method: as §1, §2

[6] = tested on: S. aureus CBC4; experiment: Deferred antagonism assay; type: cell-based; design: key: + = Enhanced bioactivity relative to control; − = Bioactivity equal to or less than control; NA = no activity evident; conditions: XX and XXX hinge mutant producers
Method: as §1, §2

[7] = tested on: L. plantarum CBC6; experiment: Deferred antagonism assay; type: cell-based, Lactobacillus plantarum; design: key: + = Enhanced bioactivity relative to control; − = Bioactivity equal to or less than control; NA = no activity evident; conditions: XX and XXX hinge mutant producers
Method: as §1, §2

[8] = tested on: indicator strains; experiment: Deferred antagonism assays, various indicator strains (summary); type: cell-based; conditions: for Target strain against which the hinge mutant was selected for enhanced bioactivity: XX and XXX banks, L. lactis HP*: enhanced or equal; for Target strain against which the hinge mutant was selected for enhanced bioactivity / Strain(s) against which the derivative (producing strain) displays enhanced bioactivity: relative to nisin A-producing control; for Strain(s) against which the derivative (producing strain) displays enhanced bioactivity: value = strains listed; for number of targets with enhanced activity: of the 8 additional targets tested
Method: as §1

Row | Substance | bioactivity relative to a nisin A-producing control [1] | bioactivity relative to a nisin A-producing control [2] | bioactivity relative to a nisin A-producing control [3] | bioactivity relative to a nisin A-producing control [4] | bioactivity relative to a nisin A-producing control [5] | bioactivity relative to a nisin A-producing control [6] | bioactivity relative to a nisin A-producing control [7] | Target strain against which the hinge mutant was selected for enhanced bioactivity [8] | Strain(s) against which the derivative (producing strain) displays enhanced bioactivity [8] | number of targets with enhanced activity [8]
1 | NisinA PNR (ITSISLCTPGCKTGALMGCPNRTATCHCSIHVSK; not fully specified (bridges); also: lantibiotic nisin-A: lanthionine rings and dehydrated residues, places not given here; UniProt P13068 24-57, looked up, variant N20P M21N K22R) [nisin A hinge variant PNR (i.e. N20P, M21N, K22R)] | − | − | − | − | − | − | − | Staph. aureus RF122 | S. aureus RF122 | 
2 | NisinA HLT (ITSISLCTPGCKTGALMGCHLTTATCHCSIHVSK; cysteine pairing not given here; also: lantibiotic nisin-A; UniProt P13068 24-57, looked up, variant N20H M21L K22T) [nisin A hinge variant HLT (i.e. N20H, M21L, K22T)] | − | + | + | + | − | + | − | Strep. agalactiae ATCC 13813 | S. agalactiae ATCC13813, L. monocytogenes CBC2 and CBC3, S. aureus CBC4 and L. lactis CBC7; also recorded: S. agalactiae ATCC13813, L. mono CBC2, CBC3, S. aureus | 4
3 | NisinA PML | − | + | + | + | − | + | − | Staph. aureus RF122 | S. aureus RF122, L. monocytogenes CBC2 , CBC3, and CBC4 and L. lactis CBC7 and S. aureus RF122, L. mono CBC2, CBC3, CBC4, L. lactis and CBC7 | 4
4 | NisinA PTA | − | − | − | − | − | − | − | C. sporogenes UCC1 | C. sporogenes UCC1 | 
5 | NisinA PMM | − | − | − | − | − | − | − | Staph. aureus RF122 | B. cereus UCC1; also recorded: B. cereus UCC | 
6 | NisinA PSL | − | − | − | − | − | − | − | C. sporogenes UCC1/Staph. aureus RF122 | C. sporogenes UCC1 and S. aureus RF122 | 
7 | NisinA PAT (ITSISLCTPGCKTGALMGCPATTATCHCSIHVSK; not fully specified (bridges); also: lantibiotic nisin-A: lanthionine rings and dehydrated residues, places not given here; UniProt P13068 24-57, looked up, variant N20P M21A K22T) [nisin A hinge variant PAT (i.e. N20P, M21A, K22T)] | − | − | − | − | − | − | − | Strep. agalactiae ATCC 13813 | S. agalactiae ATCC13813 | 
8 | NisinA GVK | − | − | + | + | − | + | − | C. sporogenes UCC1 | C. sporogenes UCC1, L. monocytogenes CBC3, S. aureus CBC4 and L. lactis CBC7 and C. sporogenes UCC1, L. mono CBC3, S. aureus CBC4, L. lactis and CBC7 | 3
9 | NisinA PTL (ITSISLCTPGCKTGALMGCPTLTATCHCSIHVSK; thioether (positions not given here); not fully specified (residues 2, 5, 33, bridges); also: lantibiotic nisin A, thioether rings and dehydro residues not given here; UniProt P13068 24-57, looked up, variant N20P M21T K22L) [nisin A hinge variant PTL (i.e. N20P, M21T, K22L)] | − | − | + | + | − | + | − | C. sporogenes UCC1 | C. sporogenes UCC1, L. monocytogenes CBC3 and CBC 4 , and L. lactis CBC7; also recorded: C. sporogenes UCC1, L mono CBC3, 4, L. lactis CBC7 | 3
10 | NisinA PMT | − | − | − | − | − | − | − | Staph. aureus RF122 | S. aureus RF122 | 
